From patent publication US20220128542A1, “TREATMENT EFFICIENCY EVALUATION” (TX MEDIC AB, priority 2019, published 2022)
Where two headings read alike, the source gives them in different places.

Tested on: brain of rats subjected to severe traumatic brain injury (sTBI)
[1] = 1 mg/kg, 2 days post-TBI, of 221 genes
[2] = 1 mg/kg, 7 days post-TBI, of 2741 genes
[3] = 5 mg/kg, 2 days post-TBI, of 221 genes
[4] = 5 mg/kg, 7 days post-TBI, of 2741 genes
[5] = 15 mg/kg, 2 days post-TBI, of 221 genes
[6] = 15 mg/kg, 7 days post-TBI, of 2741 genes
[7] = 3 repeated doses of 15 mg/kg, 7 days post-TBI, of 2741 genes
[8] = DS 1 mg/kg, day 7 following TBI, relative to TBI model
[9] = DS 5 mg/kg, day 7 following TBI, relative to TBI model
[10] = DS 15 mg/kg, day 7 following TBI, relative to TBI model

Protocol: As a starting point, a list and expression levels of molecules differentially regulated by dextran sulfate relative to a TBI model for the three different doses (1 mg/kg, 5 mg/kg and 15 mg/kg) of dextran sulfate at day 7 following TBI were established.
Male Wistar rats of 300-350 g body weight were fed with standard laboratory diet and water ad libitum in a controlled environment. As the anesthetic mixture, the animals received 35 mg/kg b.w. ketamine and 0.25 mg/kg body weight midazolam by i.p. injection. Severe traumatic brain injury (sTBI) was induced by dropping a 450 g weight from 2 m height on to the rat head that had been protected by a metal disk previously fixed on the skull, according to the “weight drop” impact acceleration model (Marmarou et al., J Neurosurg. 1994; 80: 291-300). […] At the end of each period of treatment, rats were anesthetized again and then immediately sacrificed.
LMW-DS (Tikomed AB) was provided at a stock concentration of 20 mg/ml and was kept in a temperature-monitored refrigerator at 4° C. LMW-DS aliquots were diluted to the appropriate dosing concentration in sterile saline prior to delivery of a single subcutaneous injection.
Three doses of LMW-DS were administered subcutaneously 30 minutes post-TBI. The animals were sacrificed at 2 days post-TBI. The animals were divided into the following subgroups:
Three doses of LMW-DS were administered subcutaneously 30 minutes post-TBI. The animals were sacrificed at 7 days post-TBI. The animals were divided into the following subgroups:
An in vivo craniectomy was performed on all animals during anesthesia. After carefully removing the rat's skull, the brain was exposed and removed with a surgical spatula and quickly dropped in RNALater and preserved at 4° C. for further processing.
The arrays used were the Agilent Rat expression arrays.
Statistical analysis was performed to quantitate the effect of sTBI on the brain in this model. The follow-on analyses looked at the effects of LMW-DS in this model using different iterations and algorithms. Statistical analysis was carried out using the Metaboanalyst software package. Gene expression changes of 10% with a p<0.05 were regarded as significant.

Substance: sodium salt of dextran sulfate [LMW-DS]
- genes with altered TBI-specific expression (1 mg/kg within 30 min after injury, 2 days of sTBI): 372 genes
- genes with altered TBI-specific expression (1 mg/kg within 30 min after injury, 7 days of sTBI): 3602 genes
- genes differing from healthy controls (1 mg/kg, 2 days after sTBI): 209 genes
- TBI-deregulated genes remaining deregulated relative to healthy controls [1]: 22 genes
- share of TBI-deregulated genes remaining deregulated [1]: 10%
- genes differing from healthy controls (1 mg/kg, 7 days after sTBI): 282 genes
- TBI-deregulated genes remaining deregulated relative to healthy controls [2]: 124 genes
- share of TBI-deregulated genes remaining deregulated [2]: 4.5%
- genes with altered TBI-specific expression (5 mg/kg within 30 min after TBI, 2 days of sTBI): 702 genes
- genes with altered TBI-specific expression (5 mg/kg within 30 min after TBI, 7 days of sTBI): 3852 genes
- genes differing from healthy controls (5 mg/kg, 2 days after sTBI): 258 genes
- TBI-deregulated genes remaining deregulated relative to healthy controls [3]: 51 genes
- share of TBI-deregulated genes remaining deregulated [3]: 23%
- genes differing from healthy controls (5 mg/kg, 7 days after sTBI): 398 genes
- TBI-deregulated genes remaining deregulated relative to healthy controls [4]: 169 genes
- share of TBI-deregulated genes remaining deregulated [4]: 6.1%
- genes with altered TBI-specific expression (15 mg/kg within 30 min after TBI, 2 days of sTBI): 247 genes
- genes with altered TBI-specific expression (15 mg/kg within 30 min after TBI, 7 days of sTBI): 3901 genes
- genes differing from healthy controls (15 mg/kg, 2 days after sTBI): 47 genes
- TBI-deregulated genes remaining deregulated relative to healthy controls [5]: 19 genes
- share of TBI-deregulated genes remaining deregulated [5]: 8.5%
- genes differing from healthy controls (15 mg/kg, 7 days after sTBI): 158 genes
- TBI-deregulated genes remaining deregulated relative to healthy controls [6]: 85 genes
- share of TBI-deregulated genes remaining deregulated [6]: 3.1%
- genes differing from healthy controls (3 repeated doses of 15 mg/kg, 7 days after sTBI): 234 genes
- TBI-deregulated genes remaining deregulated relative to healthy controls [7]: 116 genes
- share of TBI-deregulated genes remaining deregulated [7]: 4.25%
- AFP fold change (FC) [8]: −1.439
- ATP2A3 fold change (FC) [8]: −1.284
- ATP8A1 fold change (FC) [8]: 1.280
- BDNF fold change (FC) [8]: 1.635
- CRH fold change (FC) [8]: 1.253
- FGF1 fold change (FC) [8]: −1.366
- HBEGF fold change (FC) [8]: 1.235
- IL-17B fold change (FC) [8]: 1.863
- KITLG fold change (FC) [8]: −1.251
- LDLR fold change (FC) [8]: 1.364
- NOG fold change (FC) [8]: 1.304
- PF4 fold change (FC) [8]: −1.453
- SLC1A4 fold change (FC) [8]: 1.498
- SLC7A11 fold change (FC) [8]: 1.490
- SLC16A7 fold change (FC) [8]: 1.493
- SLC29A1 fold change (FC) [8]: −1.370
- SLC40A1 fold change (FC) [8]: −1.345
- TNFSF15 fold change (FC) [8]: 3.878
- TSLP fold change (FC) [8]: 1.389
- TTR fold change (FC) [8]: −2.531
- VAV3 fold change (FC) [8]: −1.505
- AFP fold change (FC) [9]: −1.280
- ATP2A3 fold change (FC) [9]: −1.205
- ATP8A1 fold change (FC) [9]: 1.223
- BDNF fold change (FC) [9]: 1.708
- CRH fold change (FC) [9]: 1.316
- FGF1 fold change (FC) [9]: −1.382
- HBEGF fold change (FC) [9]: 1.274
- IL-17B fold change (FC) [9]: 1.765
- KITLG fold change (FC) [9]: −1.274
- LDLR fold change (FC) [9]: 1.291
- NOG fold change (FC) [9]: 1.305
- PF4 fold change (FC) [9]: −1.331
- SLC1A4 fold change (FC) [9]: 1.531
- SLC4A1 fold change (FC) [9]: −1.442
- SLC7A11 fold change (FC) [9]: 1.469
- SLC16A7 fold change (FC) [9]: 1.441
- SLC29A1 fold change (FC) [9]: −1.377
- SLC40A1 fold change (FC) [9]: −1.338
- TNFSF15 fold change (FC) [9]: 4.302
- TSLP fold change (FC) [9]: 1.446
- TTR fold change (FC) [9]: −1.915
- VAV3 fold change (FC) [9]: −1.418
- AFP fold change (FC) [10]: −1.208
- ATP2A3 fold change (FC) [10]: −1.216
- ATP8A1 fold change (FC) [10]: 1.212
- BDNF fold change (FC) [10]: 1.557
- CRH fold change (FC) [10]: 1.293
- FGF1 fold change (FC) [10]: −1.213
- GOSR1 fold change (FC) [10]: 1.233
- HBEGF fold change (FC) [10]: 1.250
- IL36RN fold change (FC) [10]: 1.284
- IL-17B fold change (FC) [10]: 1.729
- KITLG fold change (FC) [10]: −1.261
- LDLR fold change (FC) [10]: 1.212
- NOG fold change (FC) [10]: 1.281
- PF4 fold change (FC) [10]: −1.244
- SLC1A4 fold change (FC) [10]: 1.518
- SLC4A1 fold change (FC) [10]: −1.213
- SLC7A11 fold change (FC) [10]: 1.477
- SLC16A7 fold change (FC) [10]: 1.408
- SLC29A1 fold change (FC) [10]: −1.316
- SLC40A1 fold change (FC) [10]: −1.348
- TNFSF15 fold change (FC) [10]: 3.939
- TSLP fold change (FC) [10]: 1.322
- TTR fold change (FC) [10]: −2.179
- VAV3 fold change (FC) [10]: −1.318
